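All cell lines were grown in 96-well plates and treated with compound for 48 hours. GI50 is the concentration that inhibits growth by half.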 Active and inactive are the calls of the source. Cut-off read from the data, not from the text of the source: active = GI50 up to about 1.1 µM and inactive = higher.
Assays:
Assay in all cases: inhibition of tumour cell growth, NCI panel, 48 h
MDA-MB-231 = tested on: MDA-MB-231
NCI-H522 = tested on: NCI-H522
PC-3 = tested on: PC-3
SK-OV-3 = tested on: SK-OV-3
KM12 = tested on: KM12
A549 = tested on: A549
SF-295 = tested on: SF-295
SN12C = tested on: SN12C
RXF 393 = tested on: RXF 393
Malme-3M = tested on: Malme-3M
COLO 205 = tested on: COLO 205
SF-268 = tested on: SF-268
U-251 = tested on: U-251
SR = tested on: SR
OVCAR-4 = tested on: OVCAR-4
SK-MEL-5 = tested on: SK-MEL-5
HL-60 = tested on: HL-60
DU-145 = tested on: DU-145
SNB-75 = tested on: SNB-75
HOP-92 = tested on: HOP-92

SMILES	GI50 (MDA-MB-231)	GI50 (NCI-H522)	GI50 (PC-3)	GI50 (SK-OV-3)	GI50 (KM12)	GI50 (A549)	GI50 (SF-295)	GI50 (SN12C)	GI50 (RXF 393)	GI50 (Malme-3M)	GI50 (COLO 205)	GI50 (SF-268)	GI50 (U-251)	GI50 (SR)	GI50 (OVCAR-4)	GI50 (SK-MEL-5)	GI50 (HL-60)	GI50 (DU-145)	GI50 (SNB-75)	GI50 (HOP-92)
COc1ccc2nc(-c3ccc(O)cc3)sc2c1	23 µM (inactive)	16.8 µM (inactive)	18.5 µM (inactive)	32.5 µM (inactive)	26.5 µM (inactive)	36.6 µM (inactive)	19.8 µM (inactive)	20.6 µM (inactive)	20.1 µM (inactive)	23.5 µM (inactive)	21.5 µM (inactive)	21.1 µM (inactive)	19.6 µM (inactive)	4.86 µM (inactive)	28.5 µM (inactive)	18.2 µM (inactive)	24 µM (inactive)	34.7 µM (inactive)		
O=C1C=CC[C@H]2O[C@@H](COC(=O)Cc3ccccc3)C[C@H]2O1	63.7 µM (inactive)		35.2 µM (inactive)	> 100 µM (inactive)	18.2 µM (inactive)	27.1 µM (inactive)	30.4 µM (inactive)	66.1 µM (inactive)			47.5 µM (inactive)	25 µM (inactive)	> 10 µM (inactive)	32 µM (inactive)	24 µM (inactive)	49.7 µM (inactive)	16.5 µM (inactive)	88.9 µM (inactive)	30.4 µM (inactive)	28.1 µM (inactive)
CCOC1Oc2ccccc2-c2nc(N)ncc21 (stereo unspecified)	99.3 µM (inactive)	23.4 µM (inactive)	41.5 µM (inactive)	> 100 µM (inactive)	39.4 µM (inactive)	45.8 µM (inactive)	34.1 µM (inactive)	77.1 µM (inactive)	37.7 µM (inactive)		57.5 µM (inactive)	44.1 µM (inactive)	65.6 µM (inactive)	24.9 µM (inactive)	> 100 µM (inactive)	42.8 µM (inactive)	20.8 µM (inactive)	68.4 µM (inactive)	34 µM (inactive)	69 µM (inactive)
CCOC(=O)C1=C(c2ccccc2)C12N(Cc1ccccc1)C(=O)C2(c1ccccc1)c1ccccc1 (stereo unspecified)	29.9 µM (inactive)	32.8 µM (inactive)	21.3 µM (inactive)	47.9 µM (inactive)	29.4 µM (inactive)		41.5 µM (inactive)	57.8 µM (inactive)	28.3 µM (inactive)	93.8 µM (inactive)	25.9 µM (inactive)	> 100 µM (inactive)	37.8 µM (inactive)	45.3 µM (inactive)			34.9 µM (inactive)	75 µM (inactive)		20 µM (inactive)
CO[C@H]1O[C@@H]2CO[C@@H](c3ccccc3)O[C@H]2[C@@H]2C/C=C\CCC[C@@]12O	29 µM (inactive)	20.1 µM (inactive)	25.3 µM (inactive)	29 µM (inactive)	22.5 µM (inactive)	26.9 µM (inactive)	19.7 µM (inactive)	17.7 µM (inactive)	17.2 µM (inactive)		17.2 µM (inactive)	21.6 µM (inactive)	20.8 µM (inactive)	20.3 µM (inactive)	32.8 µM (inactive)	17.8 µM (inactive)	19.8 µM (inactive)	20.7 µM (inactive)	59.6 µM (inactive)	20 µM (inactive)
O=C1OC(c2ccccc2)=N/C1=C\c1cn[nH]n1	> 100 µM (inactive)		> 100 µM (inactive)	> 100 µM (inactive)	> 100 µM (inactive)	> 100 µM (inactive)	> 100 µM (inactive)	> 100 µM (inactive)	> 100 µM (inactive)	83.4 µM (inactive)	> 100 µM (inactive)	> 100 µM (inactive)	> 100 µM (inactive)	59.6 µM (inactive)	> 100 µM (inactive)		> 100 µM (inactive)	> 100 µM (inactive)	> 100 µM (inactive)	> 100 µM (inactive)
O=C1C(Cl)=C(OCCCl)C(=O)c2c(O)ccc(O)c21	4.38 µM (inactive)		13.2 µM (inactive)	18.2 µM (inactive)	19.7 µM (inactive)	20 µM (inactive)	17.5 µM (inactive)	14.8 µM (inactive)	6.44 µM (inactive)	2.89 µM (inactive)	1.61 µM (inactive)	5.47 µM (inactive)	14.3 µM (inactive)	0.113 µM (active)	2.77 µM (inactive)	2.75 µM (inactive)	0.0617 µM (active)	17.9 µM (inactive)	13 µM (inactive)	1.57 µM (inactive)

— ChEMBL document CHEMBL1201862, “PubChem BioAssay data set” (2004)
